Laboratory results reported in patent US20250243245A1 (priority 2022, published 2025).
Values joined by “and” are separate entries in the source; they are usually repeats but may differ in a detail not shown here. Equal entries are not always repeated. Where two headings read alike, the source gives them in different places. Where a SMILES comes first, the peptide text is derived from it.

Columns and labels:
[1] = system: E. coli strain BL21; conditions: BL21, 24 h
[2] = system: E. coli BL21
[3] = in vitro; conditions: human, HEK cells (HEK294 [sic])
[4] = system: CLas; assay type: cell-based, Candidatus Liberibacter asiaticus
[5] = system: tomato and tobacco leaves; assay: Leaf infiltration toxicity on tomato and tobacco leaves; conditions: for toxicity to tomato and tobacco: 15-25 μM, even after 96 hours of leaf infiltration; for corrosion of infiltrated tomato and tobacco leaves: 24, 48, 72, and 96 hours of infiltration (FIGS. 8A-H)
[6] = system: E. amylovora; assay type: cell-based, Erwinia amylovora
[7] = system: selected genes in the PTI, ETI, and SA/JA/ET signaling; assay type: cell-based, apple (Red Delicious)
[8] = system: ATCC25922

Work on `CC[C@H](C)[C@H](NC(=O)[C@H](CCCCN)NC(=O)[C@H](CC(C)C)NC(=O)[C@@H](NC(=O)[C@H](CCC(=O)O)NC(=O)[C@H](CCCCN)NC(=O)[C@@H]1CCCN1C(=O)[C@H](CC(C)C)NC(=O)[C@H](CCCCN)NC(=O)[C@@H](N)CCCCN)[C@@H](C)CC)C(=O)N[C@@H](CC(C)C)C(=O)NCC(=O)N[C@@H](CO)C(=O)NCC(=O)N[C@@H](Cc1ccc(O)cc1)C(=O)NCC(=O)N[C@@H](CO)C(=O)N[C@@H](CC(C)C)C(=O)N1CCC[C@H]1C(=O)N[C@@H](CCCCN)C(=O)N[C@@H](CCC(=O)O)C(=O)N[C@H](C(=O)N[C@@H](CC(C)C)C(=O)N[C@@H](CCCCN)C(=O)N[C@H](C(=O)N[C@@H](CC(C)C)C(=O)N[C@@H](CCC(=O)O)C(=O)N[C@@H](CC(C)C)C(=O)N[C@@H](CCCCN)C(=O)N[C@@H](CCCCN)C(=O)O)[C@@H](C)CC)[C@@H](C)CC` [Gen-1] (H-KKLPKEILKILGSGYGSLPKEILKILELKK-OH; N-terminus and C-terminus assumed) yielded an MIC [1] of 5 to 10 mM and an IC50 ([2]; BL21, 24 h) of 10220 ± 70 nM.
For `CC[C@H](C)[C@H](NC(=O)[C@H](CCC(=O)O)NC(=O)[C@H](CC(C)C)NC(=O)[C@@H](NC(=O)[C@H](CCCCN)NC(=O)[C@H](CCC(=O)O)NC(=O)[C@@H]1CCCN1C(=O)[C@H](CC(C)C)NC(=O)[C@H](CCCCN)NC(=O)[C@@H](N)CCCCN)[C@@H](C)CC)C(=O)N[C@@H](CC(C)C)C(=O)NCC(=O)N[C@@H](CO)C(=O)NCC(=O)N[C@@H](Cc1ccc(O)cc1)C(=O)N[C@@H](CCCCN)C(=O)N[C@@H](CCCCN)C(=O)N[C@@H](CC(C)C)C(=O)N1CCC[C@H]1C(=O)N[C@@H](Cc1ccccc1)C(=O)N[C@@H](Cc1c[nH]c2ccccc12)C(=O)N[C@@H](CCC(N)=O)C(=O)N[C@@H](CCCNC(=N)N)C(=O)N[C@@H](CCCNC(=N)N)C(=O)N[C@H](C(=O)N[C@@H](CCCNC(=N)N)C(=O)N[C@@H](CCCNC(=N)N)C(=O)N[C@@H](Cc1c[nH]c2ccccc12)C(=O)N[C@@H](CCCNC(=N)N)C(=O)N[C@@H](CCCNC(=N)N)C(=O)O)[C@@H](C)CC` [Gen-2] (H-KKLPEKILEILGSGYKKLPFWQRRIRRWRR-OH; N-terminus and C-terminus assumed), the MIC [1] was 2.5 to 5 mM and the IC50 ([2]; BL21, 24 h) was 2830 ± 140 nM.
Molecule `CC[C@H](C)[C@H](NC(=O)[C@H](CCCCN)NC(=O)[C@H](CC(C)C)NC(=O)[C@@H](NC(=O)[C@H](CCCCN)NC(=O)[C@H](CCCCN)NC(=O)[C@@H](NC(=O)[C@H](CC(C)C)NC(=O)[C@H](CCCCN)NC(=O)[C@@H](N)CCCCN)[C@@H](C)CC)[C@@H](C)CC)C(=O)N[C@@H](CC(C)C)C(=O)O` [Peptide 11P-1, reference compound] (H-KKLIKKILKIL-OH; N-terminus and C-terminus assumed) has an MIC [1] of 10 to 20 mM and an IC50 ([2]; BL21, 24 h) of 12900 ± 620 nM.
With `CC[C@H](C)[C@H](NC(=O)[C@H](CCCNC(=N)N)NC(=O)[C@H](CCCNC(=N)N)NC(=O)[C@H](CCC(N)=O)NC(=O)[C@H](Cc1c[nH]c2ccccc12)NC(=O)[C@@H](N)Cc1ccccc1)C(=O)N[C@@H](CCCNC(=N)N)C(=O)N[C@@H](CCCNC(=N)N)C(=O)N[C@@H](Cc1c[nH]c2ccccc12)C(=O)N[C@@H](CCCNC(=N)N)C(=O)N[C@@H](CCCNC(=N)N)C(=O)O` [Peptide 11P-3, reference compound] (H-FWQRRIRRWRR-OH; N-terminus and C-terminus assumed) the MIC [1] was >20 mM and the IC50 ([2]; BL21, 24 h) was 49000 ± 2790 nM.
With `CC[C@H](C)[C@H](NC(=O)[C@H](CCCCN)NC(=O)[C@H](CC(C)C)NC(=O)[C@@H](NC(=O)[C@H](CCCCN)NC(=O)[C@H](CCCCN)NC(=O)[C@@H]1CCCN1C(=O)[C@H](CC(C)C)NC(=O)[C@H](CCCCN)NC(=O)[C@@H](N)CCCCN)[C@@H](C)CC)C(=O)N[C@@H](CC(C)C)C(=O)NCC(=O)N[C@@H](CO)C(=O)NCC(=O)N[C@@H](Cc1ccc(O)cc1)C(=O)NCC(=O)N[C@@H](CO)C(=O)N1CCC[C@H]1C(=O)NCC(=O)N[C@@H](Cc1ccccc1)C(=O)N[C@@H](Cc1c[nH]c2ccccc12)C(=O)N[C@@H](CCC(N)=O)C(=O)N[C@@H](CCCNC(=N)N)C(=O)N[C@@H](CCCNC(=N)N)C(=O)N[C@H](C(=O)N[C@@H](CCCNC(=N)N)C(=O)N[C@@H](CCCNC(=N)N)C(=O)N[C@@H](Cc1c[nH]c2ccccc12)C(=O)N[C@@H](CCCNC(=N)N)C(=O)N[C@@H](CCCNC(=N)N)C(=O)O)[C@@H](C)CC` [Peptide 30P-3] the cytotoxicity at 72 h, 20 µM [3] was < 20%, the “Ct value, DNA, CLas clearance from infected citrus leaves” value [4] was 29.08 ± 0.018 (2.3 × 10^4 ± 0.122) and the “Ct value, RNA, CLas clearance from infected citrus leaves” value [4] was 31.80 ± 0.028 (6.8 × 10^3 ± 0.190). For the same molecule, the “Ct, DNA, HLBas (CLas primer), Mean” value [4] was 27.53 and 26.725, the “Ct, DNA, HLBas (CLas primer), single replicate” value [4] was 27 (2×) and 28.06 and 26.45 and the “Ct, RNA, HLBas (CLas primer), Mean” value [4] was 30.155. For the same molecule, the “Ct, RNA, HLBas (CLas primer), single replicate” value [4] was 29.94 and 30.37, the “toxicity to tomato and tobacco” value [5] was “not toxic” and the “corrosion of infiltrated tomato and tobacco leaves” value (“corrosion” for short) [5] was “no corrosion beyond the infiltrated spots”. For the same molecule, the IC50 ([2]; BL21, 24 h) was 1450 ± 90 nM, the “Ct, DNA, Erwinia Primer (P29T), Mean” value ([6]; 20 μM peptide) was 37.19 and the “Ct, DNA, Erwinia Primer (P29T), single replicate” value ([6]; 20 μM peptide) was 37.67 and 36.71. The “Ct, DNA, Erwinia Primer (P29T), Mean” value ([6]; 25 μM peptide) was 36.5, the “Ct, DNA, Erwinia Primer (P29T), single replicate” value ([6]; 25 μM peptide) was 37.76 and 35.24 and the “Ct, RNA, Erwinia Primer (P29T), Mean” value ([6]; 25∞M peptide) was 31.535. For the same molecule, the “Ct, RNA, Erwinia Primer (P29T), single replicate” value ([6]; 25∞M peptide) was 31.56 and 31.51, the “Ct value, DNA, E. amylovora clearance from infected apple leaves” value ([6]; qPCR of DNA, 25 μM peptide) was 36.50 ± 0.89 and the “cfu, DNA, E. amylovora clearance from infected apple leaves” value ([6]; qPCR of DNA, 25 μM peptide, value in brackets) was ~10^2 cfu. The “Ct value, RNA, E. amylovora clearance from infected apple leaves” value ([6]; qPCR of RNA, 25 μM peptide) was 31.54 ± 0.018, the “cfu, RNA, E. amylovora clearance from infected apple leaves” value ([6]; qPCR of RNA, 25 μM peptide, value in brackets) was 7.8 × 10^3 ± 0.122 cfu and the “expression of the selected genes” value [7] was “lower expression of the selected genes”.
In the case of `CC[C@H](C)[C@H](NC(=O)[C@H](CCCNC(=N)N)NC(=O)[C@H](CCCNC(=N)N)NC(=O)[C@H](CCC(N)=O)NC(=O)[C@H](Cc1c[nH]c2ccccc12)NC(=O)[C@H](Cc1ccccc1)NC(=O)CNC(=O)[C@@H]1CCCN1C(=O)[C@H](CO)NC(=O)CNC(=O)[C@H](Cc1ccc(O)cc1)NC(=O)CNC(=O)[C@H](CO)NC(=O)[C@H](CCC(=O)O)NC(=O)[C@H](CC(C)C)NC(=O)[C@@H](NC(=O)[C@H](CCCCN)NC(=O)[C@H](CC(C)C)NC(=O)[C@@H](NC(=O)[C@H](CCCCN)NC(=O)[C@H](CCC(=O)O)NC(=O)[C@@H]1CCCN1C(=O)[C@H](CC(C)C)NC(=O)[C@H](CCCCN)NC(=O)[C@@H](N)CCCCN)[C@@H](C)CC)[C@@H](C)CC)C(=O)N[C@@H](CCCNC(=N)N)C(=O)N[C@@H](CCCNC(=N)N)C(=O)N[C@@H](Cc1c[nH]c2ccccc12)C(=O)N[C@@H](CCCNC(=N)N)C(=O)N[C@@H](CCCNC(=N)N)C(=O)O` [UGK-13] (H-KKLPEKILKILESGYGSPGFWQRRIRRWRR-OH), the cytotoxicity at 72 h, 20 µM [3] is reported as < 20%, the IC50 [8] is reported as 1400 ± 300 nM and the “toxicity to tomato and tobacco” value [5] is reported as “not toxic”. For the same molecule, the “corrosion” value [5] was “no corrosion beyond the infiltrated spots”, the IC50 ([2]; BL21) was 1200 ± 100 nM and the IC50 ([2]; BL21, 24 h) was 1240 ± 20 nM.
In the case of `CC[C@H](C)[C@H](NC(=O)[C@H](CCCNC(=N)N)NC(=O)[C@H](CCCNC(=N)N)NC(=O)[C@H](CCC(N)=O)NC(=O)[C@H](Cc1c[nH]c2ccccc12)NC(=O)[C@H](Cc1ccccc1)NC(=O)CNC(=O)[C@@H]1CCCN1C(=O)[C@H](CO)NC(=O)CNC(=O)[C@H](CCCCN)NC(=O)[C@H](CC(C)C)NC(=O)[C@H](CO)NC(=O)[C@H](CCC(=O)O)NC(=O)[C@H](CC(C)C)NC(=O)[C@@H](NC(=O)[C@H](CCCCN)NC(=O)[C@H](CC(C)C)NC(=O)[C@@H](NC(=O)[C@H](CCCCN)NC(=O)[C@H](CCC(=O)O)NC(=O)[C@@H]1CCCN1C(=O)[C@H](CC(C)C)NC(=O)[C@H](CCCCN)NC(=O)[C@@H](N)CCCCN)[C@@H](C)CC)[C@@H](C)CC)C(=O)N[C@@H](CCCNC(=N)N)C(=O)N[C@@H](CCCNC(=N)N)C(=O)N[C@@H](Cc1c[nH]c2ccccc12)C(=O)N[C@@H](CCCNC(=N)N)C(=O)N[C@@H](CCCNC(=N)N)C(=O)O` [UGK-17] (H-KKLPEKILKILESLKGSPGFWQRRIRRWRR-OH), the cytotoxicity at 72 h, 20 µM [3] is reported as < 20%, the “toxicity to tomato and tobacco” value [5] is reported as “not toxic” and the “corrosion” value [5] is reported as “no corrosion beyond the infiltrated spots”. For the same molecule, the IC50 ([2]; BL21, 24 h) was 1360 ± 40 nM.
